Results published in ChEMBL document CHEMBL3603763, “Phosphate-modified analogues of m(7)GTP and m(7)Gppppm(7)G-Synthesis and biochemical properties” (Bioorg Med Chem, 2015).

What was measured:
m7GpppX diphosphatase = molecular target: T1, m7GpppX diphosphatase (Homo sapiens, UniProt Q96C86); test: Stability of the compound assessed as human DcpS-mediated compound hydrolysis at 40 uM after 10 to 180 mins by HPLC analysis; assay type: ADME
T1 sequence (Q96C86 whole entry): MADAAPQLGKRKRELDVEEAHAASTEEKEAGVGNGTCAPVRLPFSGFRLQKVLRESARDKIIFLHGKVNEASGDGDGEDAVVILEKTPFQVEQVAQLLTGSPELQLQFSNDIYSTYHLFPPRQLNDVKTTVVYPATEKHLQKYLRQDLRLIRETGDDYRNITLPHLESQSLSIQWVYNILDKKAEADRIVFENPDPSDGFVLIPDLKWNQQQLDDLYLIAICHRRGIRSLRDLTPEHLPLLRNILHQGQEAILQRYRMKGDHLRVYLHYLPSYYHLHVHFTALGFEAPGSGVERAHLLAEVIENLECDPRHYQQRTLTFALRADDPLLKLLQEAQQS

[1] = molecular target: T2, Eukaryotic translation initiation factor 4E (Oryctolagus cuniculus, UniProt P29338); test: Inhibition of eIF4E-mediated translation in flexi rabbit reticulocyte lysate using luciferase mRNA treated simultaneously with mRNA by luminescence based luciferase assay
[2] = molecular target: T2, Eukaryotic translation initiation factor 4E; test: Inhibition of eIF4E-mediated translation in flexi rabbit reticulocyte lysate using luciferase mRNA preincubated for 60 mins before mRNA addition by luminescence based luciferase assay
[3] = molecular target: Eukaryotic translation initiation factor 4E (Homo sapiens) (UniProt P06730)
Description: Binding affinity to eIF4E (unknown origin) by fluorescence quenching assay

[4] = molecular target: Eukaryotic translation initiation factor 4E (Oryctolagus cuniculus) (UniProt P29338); test: Inhibition of eIF4E-mediated translation in flexi rabbit reticulocyte lysate using luciferase mRNA by luminescence based luciferase assay relative to m7GpppG
[5] = molecular target: T3, DcpS (m7GpppX diphosphatase) (Homo sapiens, UniProt Q96C86); test: Stability of the compound assessed as human DcpS-mediated compound hydrolysis at 40 uM after 180 mins by HPLC analysis; assay type: ADME; details: human DcpS enzyme (m7GpppX diphosphatase), read-out: Drug degradation
T3 sequence (Q96C86 whole entry): T1 sequence (Q96C86 whole entry)

Serum [6] = test: Stability of the compound in 5% fetal bovine serum at 50 uM up to 240 mins by RP-HPLC analysis; assay type: ADME, cell-free, Bos taurus; details: cattle, 4 h
Serum [7] = test: Stability of the compound in 10% fetal bovine serum at 50 uM up to 240 mins by RP-HPLC analysis; assay type: ADME, cell-free, Bos taurus; details: cattle, 4 h
[8] = Chemical stability of the compound in […] buffer at pH 8.5; assay type: physicochemical
[9] = Chemical stability of the compound in glycine buffer at pH 2.2 after 16 hrs; assay type: physicochemical; details: pH 2.2, 16 h
[10] = Chemical stability of the compound in aqueous buffer at pH 4 to 8.5; assay type: physicochemical
[11] = Chemical stability of the compound in glycine buffer at pH 2.2; assay type: physicochemical
[12] = Chemical stability of the compound in phosphate buffer at pH 7 assessed as compound decomposition; assay type: physicochemical; details: read-out: Drug degradation

Eukaryotic translation initiation factor 4E (Homo sapiens), sequence (P06730 whole entry): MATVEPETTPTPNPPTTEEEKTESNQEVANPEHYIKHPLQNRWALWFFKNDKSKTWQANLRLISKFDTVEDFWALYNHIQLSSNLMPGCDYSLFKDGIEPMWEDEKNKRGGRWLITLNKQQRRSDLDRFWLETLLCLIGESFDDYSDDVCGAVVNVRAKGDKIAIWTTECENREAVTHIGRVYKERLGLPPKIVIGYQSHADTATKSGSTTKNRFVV
Eukaryotic translation initiation factor 4E (Oryctolagus cuniculus), sequence (P29338 whole entry): as the sequence (P06730 whole entry) above, with T16P, T17A, E174D counted along it
T2 sequence (P29338 whole entry): as the sequence (P06730 whole entry) above, with T16P, T17A, E174D counted along it

Structure (SMILES)	Stability (m7GpppX diphosphatase)	IC50 [2]	Ka [3]	Ratio [4]	also measured
B[P@@](=O)(OC[C@H]1O[C@@H](n2c[n+](C)c3c(O)nc(N)nc32)[C@H](O)[C@@H]1O)OP(=O)([O-])CP(=O)(O)O.N.N.N.N	Unstable	3260 nM	36.1 µM⁻¹	–	IC50 [1]: 2550 nM
C[n+]1cn([C@@H]2O[C@H](COP(=O)(O)OP(=O)(O)OP(=O)(O)OP(=O)(O)OC[C@H]3O[C@@H](n4c[n+](C)c5c([O-])nc(N)nc54)[C@H](O)[C@@H]3O)[C@@H](O)[C@H]2O)c2nc(N)nc([O-])c21	–	–	–	3.14	–
B[P@@](=O)(OC[C@H]1O[C@@H](n2c[n+](C)c3c(O)nc(N)nc32)[C@H](O)[C@@H]1O)OP(=O)([O-])OP(=O)(O)O.N.N.N.N	Unstable	1280 nM	148 µM⁻¹	–	metabolised at 3 h, 40 µM [5]: 19%; IC50 [1]: 1190 nM
C[n+]1cn([C@@H]2O[C@H](COP(=O)(O)OP(=O)([O-])OP(=O)(O)OC[C@H]3O[C@@H](n4cnc5c(=O)[nH]c(N)nc54)[C@H](O)[C@@H]3O)[C@@H](O)[C@H]2O)c2nc(N)nc(O)c21	–	–	9.4 µM⁻¹	–	–
C[n+]1cn([C@@H]2O[C@H](COP(=O)(O)OP(=O)(O)CP(=O)(O)O)[C@@H](O)[C@H]2O)c2nc(N)nc([O-])c21	–	–	19.5 µM⁻¹	–	–
C[n+]1cn([C@@H]2O[C@H](CO[P@](=O)(S)OP(=O)([O-])OP(=O)(O)O)[C@@H](O)[C@H]2O)c2nc(N)nc(O)c21.N.N.N.N	Unstable	–	371 µM⁻¹	–	Stability (Serum [6]): Stable; Stability (Serum [7]): Stable
C[n+]1cn([C@@H]2O[C@H](COP(=O)(O)OP(=O)(O)OP(=O)(O)OC[C@H]3O[C@@H](n4c[n+](C)c5c([O-])nc(N)nc54)[C@H](O)[C@@H]3O)[C@@H](O)[C@H]2O)c2nc(N)nc([O-])c21	–	–	–	2.66	–
C[n+]1cn([C@@H]2O[C@H](COP(=O)(O)OP(=O)(O)NP(=O)(O)O)[C@@H](O)[C@H]2O)c2nc(N)nc([O-])c21	–	–	–	–	Stability [8]: Unstable; Stability [9]: Unstable
[BH3-]P(=O)(OC[C@H]1O[C@@H](n2c[n+](C)c3c(O)nc(N)nc32)[C@H](O)[C@@H]1O)OP(=O)(O)OP(=O)(O)O (stereo not given in full)	–	–	–	–	Stability [10]: Stable; Stability [11]: Unstable
B[P@](=O)(OC[C@H]1O[C@@H](n2c[n+](C)c3c(O)nc(N)nc32)[C@H](O)[C@@H]1O)OP(=O)([O-])CP(=O)(O)O.N.N.N.N	Unstable	3220 nM	18.5 µM⁻¹	–	IC50 [1]: 4470 nM
B[P@](=O)(OC[C@H]1O[C@@H](n2c[n+](C)c3c(O)nc(N)nc32)[C@H](O)[C@@H]1O)OP(=O)([O-])CP(=O)([O-])O[P@@](B)(=O)OC[C@H]1O[C@@H](n2c[n+](C)c3c(O)nc(N)nc32)[C@H](O)[C@@H]1O	–	–	–	0.85	–
B[P@](=O)(OC[C@H]1O[C@@H](n2c[n+](C)c3c(O)nc(N)nc32)[C@H](O)[C@@H]1O)OP(=O)([O-])CP(=O)([O-])O[P@](B)(=O)OC[C@H]1O[C@@H](n2c[n+](C)c3c(O)nc(N)nc32)[C@H](O)[C@@H]1O	–	–	–	1.18	–
CO[C@H]1[C@@H](O)[C@H](n2c[n+](C)c3c(O)nc(N)nc32)O[C@@H]1COP(=O)(O)OP(=O)([O-])OP(=O)(O)OC[C@H]1O[C@@H](n2cnc3c(=O)[nH]c(N)nc32)[C@H](O)[C@@H]1O	–	–	–	1.5	–
B[P@](=O)(OC[C@H]1O[C@@H](n2c[n+](C)c3c(O)nc(N)nc32)[C@H](O)[C@@H]1O)OP(=O)([O-])OP(=O)(O)O.N.N.N.N	Unstable	3260 nM	136 µM⁻¹	–	IC50 [1]: 4120 nM
C[n+]1cn([C@@H]2O[C@H](CO[P@@](=O)(S)OP(=O)([O-])CP(=O)(O)O)[C@@H](O)[C@H]2O)c2nc(N)nc(O)c21.N.N.N.N	Unstable	2610 nM	41.8 µM⁻¹	–	Stability (Serum [6]): Unstable; Stability (Serum [7]): Unstable; IC50 [1]: 3680 nM
C[n+]1cn([C@@H]2O[C@H](CO[P@](=O)(S)OP(=O)([O-])CP(=O)([O-])O[P@@](=O)(S)OC[C@H]3O[C@@H](n4c[n+](C)c5c(O)nc(N)nc54)[C@H](O)[C@@H]3O)[C@@H](O)[C@H]2O)c2nc(N)nc(O)c21	–	–	–	1.86	–
B[P@@](=O)(OC[C@H]1O[C@@H](n2c[n+](C)c3c(O)nc(N)nc32)[C@H](O)[C@@H]1O)OP(=O)([O-])OP(=O)([O-])O[P@](B)(=O)OC[C@H]1O[C@@H](n2c[n+](C)c3c(O)nc(N)nc32)[C@H](O)[C@@H]1O	–	–	–	–	metabolised at 3 h, 40 µM [5]: 81%
C[n+]1cn([C@@H]2O[C@H](COP(=O)(O)OP(=O)([O-])OP(=O)(O)OC[C@H]3O[C@@H](n4cnc5c(=O)[nH]c(N)nc54)[C@H](O)[C@@H]3O)[C@@H](O)[C@H]2O)c2nc(N)[nH]c(=O)c21	Stable	25000 nM	–	–	–
[BH3-]P(=O)(OC[C@H]1O[C@@H](n2c[n+](C)c3c(O)nc(N)nc32)[C@H](O)[C@@H]1O)OP(=O)(O)CP(=O)(O)O (stereo not given in full)	–	–	–	–	Stability [10]: Stable; Stability [11]: Unstable
C[n+]1cn([C@@H]2O[C@H](CO[P@@](=O)(S)OP(=O)([O-])OP(=O)(O)O)[C@@H](O)[C@H]2O)c2nc(N)nc(O)c21.N.N.N.N	Unstable	1300 nM	190 µM⁻¹	–	Stability (Serum [6]): Stable; Stability (Serum [7]): Stable; IC50 [1]: 1440 nM
C[n+]1cn([C@@H]2O[C@H](CO[P@](=O)(S)OP(=O)([O-])CP(=O)([O-])O[P@](=O)(S)OC[C@H]3O[C@@H](n4c[n+](C)c5c(O)nc(N)nc54)[C@H](O)[C@@H]3O)[C@@H](O)[C@H]2O)c2nc(N)nc(O)c21	–	–	–	1.56	–
C[n+]1cn([C@@H]2O[C@H](CO[P@@](=O)(S)OP(=O)([O-])CP(=O)([O-])O[P@](=O)(S)OC[C@H]3O[C@@H](n4c[n+](C)c5c(O)nc(N)nc54)[C@H](O)[C@@H]3O)[C@@H](O)[C@H]2O)c2nc(N)nc(O)c21	–	–	–	1.12	–
C[n+]1cn([C@@H]2O[C@H](COP(=O)([O-])OP(=O)(O)OP(=O)(O)O)[C@@H](O)[C@H]2O)c2nc(N)[nH]c(=O)c21	Stable	–	–	–	Stability (Serum [6]): Unstable; Stability (Serum [7]): Unstable
B[P@@](=O)(OC[C@H]1O[C@@H](n2c[n+](C)c3c(O)nc(N)nc32)[C@H](O)[C@@H]1O)OP(=O)([O-])CP(=O)([O-])O[P@](B)(=O)OC[C@H]1O[C@@H](n2c[n+](C)c3c(O)nc(N)nc32)[C@H](O)[C@@H]1O	–	–	–	0.99	–
[BH3-]P(=O)(OC[C@H]1O[C@@H](n2c[n+](C)c3c(O)nc(N)nc32)[C@H](O)[C@@H]1O)OP(=O)(O)NP(=O)(O)O (stereo not given in full)	–	–	–	–	Stability [8]: Unstable; Stability [9]: Unstable; degraded [12]: > 50%
C[n+]1cn([C@@H]2O[C@H](CO[P@](=O)(S)OP(=O)([O-])CP(=O)(O)O)[C@@H](O)[C@H]2O)c2nc(N)nc(O)c21.N.N.N.N	Unstable	1240 nM	85.9 µM⁻¹	–	Stability (Serum [6]): Stable; Stability (Serum [7]): Stable; IC50 [1]: 1490 nM
